Laboratory results: EP4289427A1, “DIHYDRO[1,8]NAPHTHYRIDIN-7-ONE AND PYRIDO[3,2-B][1,4]OXAZIN-3-ONE FOR USE IN TREATING CANCER, AND METASTASES IN PARTICULAR” (Anagenesis Biotechnologies, priority 2022, dated 2023)

Columns and labels:
HUVECs = test: Tube formation assay (anti-angiogenic activity); format: cell-based, human; conditions: incubation 16 to 18 hours; for IC50: Homo sapiens, HUVEC
From the text: Angiogenesis is a phenomenon that includes different processes, such as endothelial cell proliferation, migration and differentiation that lead to the formation of new blood vessels. Tube formation assay is a standard in vitro test to assess angiogenesis: briefly, human Umbilical Vein Endothelial cells (hereafter "HUVECs") cultivated on a gelled basement matrix spontaneously proliferate, migrate and differentiate to form tube-like structures, that appear elongated and that connect to each other to form a network.
HUVECs were cultivated in Endothelial Cell Growth Medium (cat.no. C-22010 from Promocell) supplemented with 1% PenStrep (hereafter "HUVEC medium"). On day 0, HUVECs were harvested and transferred into a 384-well plate precoated with 10 µl/well of Cultrex UltiMatrix Reduced Growth factor basement membrane (cat.no. BME001-10 from BioTechne), according to the manufacturer's instructions, at a density of 5000 cells/well in HUVEC medium. Compounds to be tested were then added onto the cells and incubated for 16 to 18 hours at 37°C. After this incubation period, the cells were stained with calcein-AM (cat.no. 10462052 from Fisher Scientific) and pictures were acquired using a confocal fluorescent microscope (IXM from Molecular Devices). Tube formation was measured with MetaXpress® Software.

RD cells = test: Cytotoxicity assay (CellTiter-Glo 2.0) on RD cells; format: cell-based, Human; conditions: for IC50: Homo sapiens
Protocol: (§1) Cytotoxicity assays consist in treating cells with compounds and assessing remaining viability after a defined incubation time, depending on the cell line. CellTiter-Glo® 2.0 reagent allows viability measurement by quantification of ATP present, which is an indicator of metabolically active cells.
(§2) The cancer cell lines were cultivated in their respective growth medium (see tables 6a and 6b). On day 0 of the cytotoxicity assay, the cells were harvested and seeded into a 384-well plate at a defined density in their respective growth medium (see tables 6a and 6b). Compounds to be tested were then added onto the cells and incubated for a defined duration (see tables 6a and 6b). Following incubation, CellTiter-Glo® 2.0 reagent (cat.no. G9241 from Promega) was added into the wells (vol/vol, according to the manufacturer's recommendations), plates were gently shaken and incubated for 10 minutes in the dark at room temperature. Bioluminescence was then measured with a multimode plate reader (Victor Nivo from Perkin Elmer), and cell viability and relative IC50 were determined. Table 6a: Cancer cell characteristics, culture and cytotoxic assay conditions

4T1 cells = test: Cytotoxicity assay (CellTiter-Glo 2.0) on 4T1 cells; format: cell-based, Mouse; conditions: incubation 2 days; for IC50: Mus musculus, 48 h
Protocol: as §1, §2

MDA-MB-231 cells = test: Cytotoxicity assay (CellTiter-Glo 2.0) on MDA-MB-231 cells; format: cell-based, Human; conditions: incubation 3 days; for IC50: Homo sapiens, 72 h
Protocol: as §1, §2

EoL-1 cells = test: Cytotoxicity assay (CellTiter-Glo 2.0) on EoL-1 cells; format: cell-based, Human; conditions: incubation 1 day; for IC50: Homo sapiens, EOL1, 24 h
Protocol: as §1, §2

| SMILES | IC50 (HUVECs) [nM] | Angiogenesis inhibition (HUVECs) | Cytotoxicity (RD cells; 2 day-treatment) | Cytotoxicity (RD cells; 4 day-treatment) | IC50 (RD cells; 48 h, 2 day-treatment) [µM] | IC50 (RD cells; 96 h, 4 day-treatment) [µM] | IC50 (4T1 cells) [µM] | Cytotoxicity (4T1 cells) | IC50 (MDA-MB-231 cells) [nM] | Cytotoxicity (MDA-MB-231 cells) | IC50 (EoL-1 cells) [nM] | Cytotoxicity (EoL-1 cells) |
| --- | --- | --- | --- | --- | --- | --- | --- | --- | --- | --- | --- | --- |
| CSc1cc(Oc2ccnc3c2CCC(=O)N3)ccc1NC(=O)Nc1cc(C(C)(C)C)nn1-c1ccccc1 [Compound 001, 1-(3-(tert-butyl)-1-phenyl-1H-pyrazol-5-yl)-3-(2-(methylthio)-4-((7-oxo-5,6,7,8-tetrahydro-1,8-naphthyridin-4-yl)oxy)phenyl)urea] | < 100 | +++ (angiogenesis inhibition ≥ 80%) | + (20 % ≤ cytotoxicity < 50%) | ++ (50% ≤ cytotoxicity < 85%) | 1 to 5 | 1 to 5 | 1 to 5 | +++ (cytotoxicity ≥ 85%) | 1000 to 5000 | ++ (50% ≤ cytotoxicity < 85%) | 10 to 100 | +++ (cytotoxicity ≥ 85%) |
| CSc1cc(Oc2ccnc3c2CCC(=O)N3)ccc1NC(=O)Nc1cc(C(C)(C)C)nn1-c1ccc(C)cc1 [Compound 002, 1-(3-(tert-butyl)-1-(p-tolyl)-1H-pyrazol-5-yl)-3-(2-(methylthio)-4-((7-oxo-5,6,7,8-tetrahydro-1,8-naphthyridin-4-yl)oxy)phenyl)urea] | < 100 | +++ (angiogenesis inhibition ≥ 80%) | ++ (50% ≤ cytotoxicity < 85%) | ++ (50% ≤ cytotoxicity < 85%) | 1 to 5 | 1 to 5 | 1 to 5 | +++ (cytotoxicity ≥ 85%) | 1000 to 5000 | ++ (50% ≤ cytotoxicity < 85%) | 10 to 100 | +++ (cytotoxicity ≥ 85%) |
| CSc1cc(Oc2ccnc3c2CCC(=O)N3)ccc1NC(=O)Nc1cc(C(C)(C)C)nn1-c1cccc(Cl)c1 [Compound 003, 1-(3-(tert-butyl)-1-(3-chlorophenyl)-1H-pyrazol-5-yl)-3-(2-(methylthio)-4-((7-oxo-5,6,7,8-tetrahydro-1,8-naphthyridin-4-yl)oxy)phenyl)urea] |  |  | + (20 % ≤ cytotoxicity < 50%) | + (20 % ≤ cytotoxicity < 50%) | 1 to 5 | 5 to 10 | < 1 | +++ (cytotoxicity ≥ 85%) | 1000 to 5000 | ++ (50% ≤ cytotoxicity < 85%) |  |  |
| CSc1cc(Oc2ccnc3c2CCC(=O)N3)ccc1NC(=O)Nc1ncc(C(C)(C)C)s1 [Compound 004, 1-(5-(tert-butyl)thiazol-2-yl)-3-(2-(methylthio)-4-((7-oxo-5,6,7,8-tetrahydro-1,8-naphthyridin-4-yl)oxy)phenyl)urea] | 100 to 500 | +++ (angiogenesis inhibition ≥ 80%) | + (20 % ≤ cytotoxicity < 50%) | ++ (50% ≤ cytotoxicity < 85%) | 1 to 5 | 1 to 5 | 1 to 5 | +++ (cytotoxicity ≥ 85%) | < 1000 | ++ (50% ≤ cytotoxicity < 85%) | 1 to 10 | +++ (cytotoxicity ≥ 85%) |
| CSc1cc(Oc2ccnc3c2CCC(=O)N3)ccc1NC(=O)Nc1cncc(C(F)(F)F)c1 [Compound 005, 1-(2-(methylthio)-4-((7-oxo-5,6,7,8-tetrahydro-1,8-naphthyridin-4-yl)oxy)phenyl)-3-(5-(trifluoromethyl)pyridin-3-yl)urea] | 100 to 500 | ++ (80% > angiogenesis inhibition ≥ 50%) | + (20 % ≤ cytotoxicity < 50%) | ++ (50% ≤ cytotoxicity < 85%) | 1 to 5 | 1 to 5 | 5 to 10 | ++ (50% ≤ cytotoxicity < 85%) | 1000 to 5000 | ++ (50% ≤ cytotoxicity < 85%) | < 1 | +++ (cytotoxicity ≥ 85%) |
| CC(C)(C)c1cnc(NC(=O)Nc2ccc(Oc3ccnc4c3CCC(=O)N4)c3ccccc23)s1 [Compound 007, 1-(5-(tert-butyl)thiazol-2-yl)-3-(4-((7-oxo-5,6,7,8-tetrahydro-1,8-naphthyridin-4-yl)oxy)naphthalen-1-yl)urea] | < 100 | +++ (angiogenesis inhibition ≥ 80%) | + (20 % ≤ cytotoxicity < 50%) | ++ (50% ≤ cytotoxicity < 85%) | 5 to 10 | 1 to 5 | 1 to 5 | +++ (cytotoxicity ≥ 85%) | 1000 to 5000 | ++ (50% ≤ cytotoxicity < 85%) | 10 to 100 | +++ (cytotoxicity ≥ 85%) |
